Test [1] concerns the target Serine/threonine-protein kinase PAK 6 (Homo sapiens, UniProt Q9NQU5).
In test [2] the target is Dual specificity protein kinase CLK4 (Homo sapiens, UniProt Q9HAZ1).
The target of test [3] is T1, Protein kinase C zeta type (Homo sapiens, UniProt Q05513).
T1 sequence (Q05513 whole entry): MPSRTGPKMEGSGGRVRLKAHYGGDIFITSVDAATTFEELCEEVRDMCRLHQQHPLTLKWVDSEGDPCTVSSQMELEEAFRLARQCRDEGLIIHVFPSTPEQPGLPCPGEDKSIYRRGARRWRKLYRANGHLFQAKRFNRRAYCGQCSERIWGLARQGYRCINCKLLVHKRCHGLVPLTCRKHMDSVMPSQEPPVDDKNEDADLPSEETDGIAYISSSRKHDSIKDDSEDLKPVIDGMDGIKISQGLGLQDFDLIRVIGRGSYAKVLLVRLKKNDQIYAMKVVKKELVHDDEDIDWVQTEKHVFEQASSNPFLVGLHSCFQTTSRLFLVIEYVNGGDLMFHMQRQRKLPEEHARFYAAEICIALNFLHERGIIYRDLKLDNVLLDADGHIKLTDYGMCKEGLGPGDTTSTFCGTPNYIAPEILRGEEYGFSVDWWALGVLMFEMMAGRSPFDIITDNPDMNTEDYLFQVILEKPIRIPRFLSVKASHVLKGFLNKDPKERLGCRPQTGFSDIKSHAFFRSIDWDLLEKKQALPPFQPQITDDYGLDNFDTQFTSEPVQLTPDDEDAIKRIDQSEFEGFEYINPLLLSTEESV

Test [4] addresses T2, MAP/microtubule affinity-regulating kinase 4 (Homo sapiens, UniProt Q96L34).
T2 sequence (Q96L34 whole entry): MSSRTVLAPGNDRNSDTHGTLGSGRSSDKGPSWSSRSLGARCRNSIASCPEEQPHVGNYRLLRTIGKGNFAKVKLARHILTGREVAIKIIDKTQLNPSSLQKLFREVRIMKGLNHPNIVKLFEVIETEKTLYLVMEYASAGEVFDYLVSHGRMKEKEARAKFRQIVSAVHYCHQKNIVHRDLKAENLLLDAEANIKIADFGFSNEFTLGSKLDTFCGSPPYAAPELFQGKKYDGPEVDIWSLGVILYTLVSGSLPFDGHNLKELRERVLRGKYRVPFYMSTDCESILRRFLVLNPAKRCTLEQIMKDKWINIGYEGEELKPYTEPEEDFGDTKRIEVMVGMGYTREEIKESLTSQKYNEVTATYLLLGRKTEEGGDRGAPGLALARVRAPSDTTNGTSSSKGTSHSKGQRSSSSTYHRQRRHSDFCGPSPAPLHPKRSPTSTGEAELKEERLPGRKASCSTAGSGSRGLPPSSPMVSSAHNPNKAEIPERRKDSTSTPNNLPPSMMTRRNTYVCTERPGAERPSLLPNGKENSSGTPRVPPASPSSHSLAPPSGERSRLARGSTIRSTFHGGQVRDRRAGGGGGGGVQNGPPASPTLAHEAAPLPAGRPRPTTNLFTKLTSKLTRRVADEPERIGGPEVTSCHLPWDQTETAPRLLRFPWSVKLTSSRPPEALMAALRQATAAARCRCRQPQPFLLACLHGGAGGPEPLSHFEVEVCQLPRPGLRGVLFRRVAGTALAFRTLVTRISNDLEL

Test [5] concerns the target T3, Dual specificity protein kinase TTK (Homo sapiens, UniProt P33981).
T3 sequence (P33981 whole entry): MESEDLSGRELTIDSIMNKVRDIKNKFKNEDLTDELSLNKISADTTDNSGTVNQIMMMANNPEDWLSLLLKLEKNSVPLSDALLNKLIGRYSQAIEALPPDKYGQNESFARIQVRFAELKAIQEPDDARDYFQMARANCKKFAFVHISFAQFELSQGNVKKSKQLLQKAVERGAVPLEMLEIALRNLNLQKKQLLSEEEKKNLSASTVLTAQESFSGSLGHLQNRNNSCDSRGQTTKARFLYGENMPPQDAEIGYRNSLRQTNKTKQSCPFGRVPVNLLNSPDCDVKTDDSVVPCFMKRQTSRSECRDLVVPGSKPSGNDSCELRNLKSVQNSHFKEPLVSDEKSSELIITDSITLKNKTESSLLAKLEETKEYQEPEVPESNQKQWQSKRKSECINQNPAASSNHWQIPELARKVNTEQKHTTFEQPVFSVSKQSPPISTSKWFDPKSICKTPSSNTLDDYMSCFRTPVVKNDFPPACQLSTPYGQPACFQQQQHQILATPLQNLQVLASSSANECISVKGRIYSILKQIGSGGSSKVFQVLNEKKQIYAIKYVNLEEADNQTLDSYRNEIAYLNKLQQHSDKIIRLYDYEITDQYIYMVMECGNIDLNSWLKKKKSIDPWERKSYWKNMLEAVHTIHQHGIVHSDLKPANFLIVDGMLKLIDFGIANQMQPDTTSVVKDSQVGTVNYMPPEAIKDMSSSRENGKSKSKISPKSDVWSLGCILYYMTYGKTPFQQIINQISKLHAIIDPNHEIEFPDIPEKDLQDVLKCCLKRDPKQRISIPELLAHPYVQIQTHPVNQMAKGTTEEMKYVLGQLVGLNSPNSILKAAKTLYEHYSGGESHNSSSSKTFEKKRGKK

pKd: −log10 of the molar value. Activity calls are given as the source filed them.
Also: in the data inactive means no Kd found up to 30 µM.

Sequence of Dual specificity protein kinase CLK4 (Q9HAZ1 whole entry): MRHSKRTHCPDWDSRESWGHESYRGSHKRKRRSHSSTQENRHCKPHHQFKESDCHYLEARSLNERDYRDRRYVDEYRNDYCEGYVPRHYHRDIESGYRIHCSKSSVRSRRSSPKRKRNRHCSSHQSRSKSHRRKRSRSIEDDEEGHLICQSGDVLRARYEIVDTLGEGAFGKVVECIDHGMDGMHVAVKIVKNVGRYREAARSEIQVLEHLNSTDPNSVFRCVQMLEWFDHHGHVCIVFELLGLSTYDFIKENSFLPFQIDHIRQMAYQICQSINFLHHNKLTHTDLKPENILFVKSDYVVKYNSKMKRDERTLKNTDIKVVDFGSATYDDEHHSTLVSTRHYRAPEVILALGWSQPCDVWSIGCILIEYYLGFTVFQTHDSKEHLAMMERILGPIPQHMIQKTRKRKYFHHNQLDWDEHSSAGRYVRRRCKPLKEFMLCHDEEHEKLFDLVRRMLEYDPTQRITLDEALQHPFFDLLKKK
Sequence of Serine/threonine-protein kinase PAK 6 (Q9NQU5 whole entry): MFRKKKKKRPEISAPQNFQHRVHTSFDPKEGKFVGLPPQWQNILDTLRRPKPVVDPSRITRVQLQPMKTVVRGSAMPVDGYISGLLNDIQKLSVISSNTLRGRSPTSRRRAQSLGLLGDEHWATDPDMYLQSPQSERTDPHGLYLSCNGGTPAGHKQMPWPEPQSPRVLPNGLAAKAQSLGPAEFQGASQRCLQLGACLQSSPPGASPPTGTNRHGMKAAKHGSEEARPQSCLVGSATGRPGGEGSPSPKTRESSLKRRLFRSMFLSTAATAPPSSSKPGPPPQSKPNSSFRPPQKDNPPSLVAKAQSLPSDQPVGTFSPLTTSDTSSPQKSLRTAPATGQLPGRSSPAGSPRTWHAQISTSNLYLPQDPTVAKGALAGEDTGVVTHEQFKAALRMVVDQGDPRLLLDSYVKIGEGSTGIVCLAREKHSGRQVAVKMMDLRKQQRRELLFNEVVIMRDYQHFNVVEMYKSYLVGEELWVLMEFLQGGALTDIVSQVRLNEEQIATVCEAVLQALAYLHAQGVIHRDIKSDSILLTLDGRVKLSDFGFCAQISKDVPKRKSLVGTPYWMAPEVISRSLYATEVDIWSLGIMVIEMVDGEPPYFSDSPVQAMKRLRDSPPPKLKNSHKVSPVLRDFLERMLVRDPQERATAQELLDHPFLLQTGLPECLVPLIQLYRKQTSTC

By Kd is commonly meant the concentration at which binding is half-saturated. Take `O[C@H]1CC[C@H](Nc2ncc3nc(Nc4c(F)cc(F)cc4F)n([C@H]4CCOC4)c3n2)CC1` [TANZISERTIB]: the Kd in test [1], in test [2], in test [3], in test [4] and in test [5] was > 30 µM (inactive) throughout.
As to `O=C(Nc1ccc(OC(F)(F)F)cc1)c1sccc1NCc1ccnc2ccccc12` [OSI-930], the Kd in test [1], in test [2], in test [3], in test [4] and in test [5] was > 30 µM (inactive) in each case.
By pKd is commonly meant the Kd on a negative log10 scale, so that one unit is a factor of ten. As for `Cn1cc(-c2[nH]c3cc(NC(=O)[C@H](N)C4CCCCC4)cc4c3c2C=NNC4=O)cn1`, the pKd in test [1] is 7.72; in test [4], 7.44. Also, the Kd in test [2], in test [3] and in test [5] was > 30 µM (inactive) each time.
For `COc1cc(F)c(F)c(Nc2ccc(I)cc2F)c1NS(=O)(=O)C1(C[C@H](O)CO)CC1` [REFAMETINIB], the Kd in test [1], in test [2], in test [3] and in test [4] was > 30 µM (inactive) throughout.
As for `CCc1cc2c(cc1N1CCC(N3CCOCC3)CC1)C(C)(C)c1[nH]c3cc(C#N)ccc3c1C2=O` [ALECTINIB], the Kd in test [1], in test [2], in test [3], in test [4] and in test [5] was > 30 µM (inactive) in each case.
With `COc1cc2nccc(Oc3ccc(NC(=O)C4(C(=O)Nc5ccc(F)cc5)CC4)cc3)c2cc1OC` [CABOZANTINIB], the Kd in test [1], in test [2], in test [3], in test [4] and in test [5] was > 30 µM (inactive) each time.
For `Cc1cc(Nc2nc(N[C@@H](C)c3ncc(F)cn3)ncc2Cl)n[nH]1` [AZD-1480], the Kd in test [1], in test [2], in test [3] and in test [4] was > 30 µM (inactive) in each case.
`O=C(NC[C@H](O)CO)c1ccncc1Nc1ccc(I)cc1F` [PIMASERTIB]: the Kd in test [1], in test [2], in test [4] and in test [5] was > 30 µM (inactive) in each case. This compound also had a pKd in test [3] of 4.98.
